Reference: patent US12655116B2, “Substituted isophthalic acid diamides” (Bayer Aktiengesellschaft, priority 2020, dated 2026)

Tests used:
VERPE = test: Pre-emergence herbicidal action against VERPE; assay type: in vivo, Veronica persica; details: Veronica persica, 504 h, dosage 80 g/ha
In short: (§1)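 Pre-emergence soil-surface spray of formulated compound (WP or EC; 600 to 800 l/ha; 0.2% wetting agent) over seeds sown in sandy loam. After 3 weeks under greenhouse conditions, damage is estimated visually in percent against untreated plants.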

VIOTR [1] = test: Pre-emergence herbicidal action against VIOTR; assay type: in vivo, Viola tricolor; details: Viola tricolor, 504 h; for pest or weed control at 20 g/ha: dosage 20 g/ha; for pest or weed control at 80 g/ha: dosage 80 g/ha
In short: as §1

ECHCG [2] = test: Post-emergence herbicidal action against ECHCG; assay type: in vivo, Echinochloa crus-galli; details: Echinochloa crus-galli, 504 h; for pest or weed control at 20 g/ha: dosage 20 g/ha
In short: (§2)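 Spray, one-leaf stage: WP or EC compound in water, 600–800 l/ha, 0.2% wetting agent. Plants held about 3 weeks in the greenhouse, then visually rated in percent of kill compared with untreated controls.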

AVEFA [3] = test: Post-emergence herbicidal action against AVEFA; assay type: in vivo, Avena fatua; details: Avena fatua, 504 h, 20 g/ha, visual assessment about 3 weeks after treatment, 100% = plants have died, 0% = like control plants
In short: as §2

AVEFA [4] = test: Pre-emergence herbicidal action against AVEFA; assay type: in vivo, Avena fatua; details: Avena fatua, 504 h, pre-emergence
In short: as §1

AMARE [5] = test: Post-emergence herbicidal action against AMARE; assay type: in vivo, Amaranthus retroflexus; details: Amaranthus retroflexus, 504 h, 20 g/ha, visual assessment about 3 weeks after treatment, 100% = plants have died, 0% = like control plants
In short: as §2

MATIN [6] = test: Pre-emergence herbicidal action against MATIN; assay type: in vivo, Matricaria inodora; details: Tripleurospermum inodorum, 504 h; for pest or weed control at 80 g/ha: dosage 80 g/ha
In short: as §1

LOLRI = test: Post-emergence herbicidal action against LOLRI; assay type: in vivo, Lolium rigidum; details: Lolium rigidum, 504 h, dosage 20 g/ha
Procedure: Seeds of monocotyledonous and dicotyledonous weed and crop plants are laid out in sandy loam soil in wood-fiber pots, covered with soil and cultivated in a greenhouse under good growth conditions. 2 to 3 weeks after sowing, the test plants are treated at the one-leaf stage. The compounds of the invention, formulated in the form of wettable powders (WP) or as emulsion concentrates (EC), are then sprayed onto the green parts of the plants in the form of an aqueous suspension or emulsion at a water application rate equivalent to 600 to 800 l/ha, with addition of 0.2% wetting agent. After the test plants have been left to stand in the greenhouse under optimal growth conditions for about 3 weeks, the action of the preparations is assessed visually in comparison to untreated controls (herbicidal action in percent (%): 100% activity=the plants have died, 0% activity=like control plants). […] The tables below illustrate, in an illustrative manner, the post-emergence herbicidal action of the compounds of the invention, the herbicidal activity being stated in percent.

AMARE [7] = test: Pre-emergence herbicidal action against AMARE; assay type: in vivo, Amaranthus retroflexus; details: Amaranthus retroflexus, 504 h, scored visually after 3 weeks vs untreated controls, 100% = plants have died, 0% = like control plants
In short: as §1

VIOTR [8] = test: Post-emergence herbicidal action against VIOTR; assay type: in vivo, Viola tricolor; details: Viola tricolor, 504 h, 20 g/ha
In short: as §2

ABUTH [9] = test: Post-emergence herbicidal action against ABUTH; assay type: in vivo, Abutilon theophrasti; details: Abutilon theophrasti, 504 h, visual assessment about 3 weeks after treatment vs untreated controls; for pest or weed control at 20 g/ha: dosage 20 g/ha
In short: as §2

ECHCG [10] = test: Pre-emergence herbicidal action against ECHCG; assay type: in vivo, Echinochloa crus-galli; details: Echinochloa crus-galli, 504 h, 80 g/ha
In short: as §1

ABUTH [11] = test: Pre-emergence herbicidal action against ABUTH; assay type: in vivo, Abutilon theophrasti; details: Abutilon theophrasti, 504 h; for pest or weed control at 80 g/ha: scored visually after 3 weeks vs untreated controls (100% = plants have died, 0% = like control plants)
In short: as §1

SETVI [12] = test: Pre-emergence herbicidal action against SETVI; assay type: in vivo, Setaria viridis; details: Setaria viridis, 504 h; for pest or weed control at 20 g/ha: dosage 20 g/ha; for pest or weed control at 80 g/ha: dosage 80 g/ha
In short: as §1

ALOMY [13] = test: Post-emergence herbicidal action against ALOMY; assay type: in vivo, Alopecurus myosuroides; details: Alopecurus myosuroides, 504 h, visual assessment about 3 weeks after treatment vs untreated controls; for pest or weed control at 20 g/ha: dosage 20 g/ha
In short: as §2

SETVI [14] = test: Post-emergence herbicidal action against SETVI; assay type: in vivo, Setaria viridis; details: Setaria viridis, 504 h; for pest or weed control at 20 g/ha: dosage 20 g/ha
In short: as §2

ALOMY [15] = test: Pre-emergence herbicidal action against ALOMY; assay type: in vivo, Alopecurus myosuroides; details: Alopecurus myosuroides, 504 h, pre-emergence; for pest or weed control at 80 g/ha: scored visually after 3 weeks vs untreated controls (100% = plants have died, 0% = like control plants)
In short: as §1

DIGSA [16] = test: Post-emergence herbicidal action against DIGSA; assay type: in vivo, Digitaria sanguinalis; details: Digitaria sanguinalis, 504 h
In short: as §2

PHBPU [17] = test: Pre-emergence herbicidal action against PHBPU; assay type: in vivo, Pharbitis purpurea; details: Ipomoea purpurea, 504 h
In short: as §1

POLCO [18] = test: Pre-emergence herbicidal action against POLCO; assay type: in vivo, Polygonum convolvulus; details: Fallopia convolvulus, 504 h, dosage 80 g/ha
In short: as §1

HORMU [19] = test: Post-emergence herbicidal action against HORMU; assay type: in vivo, Hordeum murinum; details: Hordeum murinum, 504 h, dosage 20 g/ha
In short: as §2

STEME [20] = test: Pre-emergence herbicidal action against STEME; assay type: in vivo, Stellaria media; details: Stellaria media, 504 h
In short: as §1

STEME [21] = test: Post-emergence herbicidal action against STEME; assay type: in vivo, Stellaria media; details: Stellaria media, 504 h
In short: as §2

PHBPU [22] = test: Post-emergence herbicidal action against PHBPU; assay type: in vivo, Pharbitis purpurea; details: Ipomoea purpurea, 504 h
In short: as §2

DIGSA [23] = test: Pre-emergence herbicidal action against DIGSA; assay type: in vivo, Digitaria sanguinalis; details: Digitaria sanguinalis, 504 h
In short: as §1

POLCO [24] = test: Post-emergence herbicidal action against POLCO; assay type: in vivo, Polygonum convolvulus; details: Fallopia convolvulus, 504 h, dosage 20 g/ha
In short: as §2

MATIN [25] = test: Post-emergence herbicidal action against MATIN; assay type: in vivo, Matricaria inodora; details: Tripleurospermum inodorum, 504 h
In short: as §2

HORMU [26] = test: Pre-emergence herbicidal action against HORMU; assay type: in vivo, Hordeum murinum; details: Hordeum murinum, 504 h; 80 g/ha, pre-emergence
In short: as §1

[27] = 20 g/ha, scored visually after 3 weeks, 100% = plants have died, 0% = like control plants

In the case of Cn1nnnc1NC(=O)c1ccc(Cl)c(C(=O)NC2CC2)c1Br [Example 1-351], the pest or weed control at 80 g/ha (VERPE) was 90%, the pest or weed control at 20 g/ha (VIOTR [1]) was 100% and the pest or weed control at 80 g/ha (VIOTR [1]) was 100%. For the same compound, the pest or weed control at 20 g/ha (ECHCG [2]) was 100%, the pest or weed control at 20 g/ha (AVEFA [3]) was 80% and the pest or weed control at 80 g/ha (AVEFA [4]) was 100%. It also gave a pest or weed control at 20 g/ha (AMARE [5]) of 100%, a pest or weed control at 80 g/ha (MATIN [6]) of 100% and a pest or weed control at 20 g/ha (LOLRI) of 80%. For the same compound, the pest or weed control at 20 g/ha (AMARE [7]) was 100%, the pest or weed control at 80 g/ha (AMARE [7]) was 100% and the pest or weed control at 20 g/ha (VIOTR [8]) was 80%. For the same compound, the pest or weed control at 20 g/ha (ABUTH [9]) was 80%, the pest or weed control at 80 g/ha (ECHCG [10]) was 100% and the pest or weed control at 80 g/ha (ABUTH [11]) was 100%. It also gave a pest or weed control at 20 g/ha (SETVI [12]) of 100%, a pest or weed control at 80 g/ha (SETVI [12]) of 100% and a pest or weed control at 5 g/ha (ALOMY [13]; dosage 5 g/ha) of 90%. The pest or weed control at 20 g/ha (ALOMY [13]) was 90%, the pest or weed control at 20 g/ha (SETVI [14]) was 100% and the pest or weed control at 80 g/ha (ALOMY [15]) was 100%. It also gave a pest or weed control at 20 g/ha (ALOMY [15]; [27]) of 100%.

CCNC(=O)c1c(C(F)(F)F)ccc(C(=O)Nc2nnnn2CC)c1C [Example 2-26] gave a pest or weed control at 5 g/ha (DIGSA [16]; 5 g/ha) of 90%, a pest or weed control at 20 g/ha (DIGSA [16]; 20 g/ha) of 90% and a pest or weed control at 20 g/ha (VIOTR [1]) of 100%. The pest or weed control at 80 g/ha (VIOTR [1]) was 100%, the pest or weed control at 5 g/ha (ECHCG [2]; dosage 5 g/ha) was 80% and the pest or weed control at 20 g/ha (ECHCG [2]) was 80%. The pest or weed control at 20 g/ha (PHBPU [17]; dosage 20 g/ha) was 90%, the pest or weed control at 80 g/ha (PHBPU [17]; dosage 80 g/ha) was 100% and the pest or weed control at 80 g/ha (POLCO [18]) was 80%. The pest or weed control at 20 g/ha (HORMU [19]) was 80%, the pest or weed control at 20 g/ha (AVEFA [3]) was 80% and the pest or weed control at 20 g/ha (STEME [20]; dosage 20 g/ha) was 100%. The pest or weed control at 80 g/ha (STEME [20]; dosage 80 g/ha) was 100%, the pest or weed control at 80 g/ha (AVEFA [4]) was 100% and the pest or weed control at 20 g/ha (AVEFA [4]; [27]) was 80%. The pest or weed control at 20 g/ha (STEME [21]; 20 g/ha) was 90%, the pest or weed control at 5 g/ha (STEME [21]; dosage 5 g/ha) was 80% and the pest or weed control at 20 g/ha (AMARE [5]) was 100%. It also gave a pest or weed control at 20 g/ha (MATIN [6]; dosage 20 g/ha) of 100%, a pest or weed control at 80 g/ha (MATIN [6]) of 100% and a pest or weed control at 5 g/ha (PHBPU [22]; dosage 5 g/ha) of 80%. It also gave a pest or weed control at 20 g/ha (PHBPU [22]; dosage 20 g/ha) of 80%, a pest or weed control at 20 g/ha (DIGSA [23]; dosage 20 g/ha) of 100% and a pest or weed control at 80 g/ha (DIGSA [23]; dosage 80 g/ha) of 100%. It also gave a pest or weed control at 20 g/ha (POLCO [24]) of 80%, a pest or weed control at 20 g/ha (AMARE [7]) of 100% and a pest or weed control at 80 g/ha (AMARE [7]) of 100%. It also gave a pest or weed control at 20 g/ha (VIOTR [8]) of 80%, a pest or weed control at 5 g/ha (ABUTH [9]; dosage 5 g/ha) of 100% and a pest or weed control at 20 g/ha (ABUTH [9]) of 100%. The pest or weed control at 5 g/ha (MATIN [25]; dosage 5 g/ha) was 80%, the pest or weed control at 20 g/ha (MATIN [25]; dosage 20 g/ha) was 90% and the pest or weed control at 80 g/ha (ECHCG [10]) was 100%. It also gave a pest or weed control at 80 g/ha (ABUTH [11]) of 100%, a pest or weed control at 20 g/ha (ABUTH [11]; dosage 20 g/ha, scored visually after 3 weeks vs untreated controls, 100% = plants have died, 0% = like control plants, read-out: Pre-emergence action against ABUTH (herbicidal activity in percent)) of 100% and a pest or weed control at 20 g/ha (SETVI [12]) of 80%. It also gave a pest or weed control at 80 g/ha (SETVI [12]) of 100%, a pest or weed control at 20 g/ha (ALOMY [13]) of 80% and a pest or weed control at 80 g/ha (HORMU [26]) of 90%. The pest or weed control at 5 g/ha (SETVI [14]; dosage 5 g/ha) was 80%, the pest or weed control at 20 g/ha (SETVI [14]) was 100% and the pest or weed control at 80 g/ha (ALOMY [15]) was 100%.
